{"source": "patent US8071619B2", "about": "“Injectable liquid formulation of paracetamol” (priority 2003, dated 2011)", "origin": "cited, not measured here", "details": "aqueous solution; K. T. Koshy et al., 1961", "data": [{"smiles": "CC(=O)Nc1ccc(O)cc1", "note": "[paracetamol, N-(4-hydroxy-phenyl)acetamide]", "values": [{"measurement": "pH at which the rate of degradation of paracetamol is minimal", "value": "~6"}]}]}
